Experiment [1] concerns the target p45 v-abl tyrosine kinase. As to the kind of experiment: p45 v-abl kinase assay. It is filed as biochemical, Abelson murine leukemia virus. Particulars: (Val^5)-angiotensin II phosphorylation; peptide 2 mM, ATP 50 μM; pH 8.0; 30° C.; triplicate; read-out: Inhibition of p45 v-abl kinase, IC50. How it is done: p45 v-abl kinase purification
The enzyme used in our tests is the p45 v-abl tyrosine kinase which represents the catalytic domain of the Abelson tyrosine kinase (isolated from the Abelson murine leukemia virus). The p45 v-abl kinase is produced and isolated as described by Wang et al. in J.Biol.Chem. 260, 64 (1985) and by Ferguson et al. in J. Biol. Chem. 260, 3652 (1985) and in Biochem. J. 257, 321 (1989).
(Val^5)-angiotensin II phosphorylation is performed, by incubation with 40 ng of purified abl-kinase and (γ-^32 P) ATP, in 50 μl of buffer containing Tris-HCl 25 mM, pH 8.0, MgCl2 10 mM and dithiothreitol 0.1 mM (kinase buffer). The reaction mixture is incubated for the indicated time at 30° C. and the reaction stopped by adding 50 μl of 5% trichloracetic acid. After a brief incubation on ice the tubes are centrifuged. The supernatants are spotted on phosphocellulose paper squares (Whatman P-81) and washed extensively in acetic acid. The radioactivity bound to dried phosphocellulose squares is measured in a liquid scintillation counter. IC50 values are calculated from triplicated determination of each experimental point. Each inhibitor is tested at concentrations ranging from […] in the presence of fixed concentrations of peptide (2 mM) and ATP (50 μM).

Experiment [2] relates to K562 cells, a human myelogenous leukemia cell line. The experiment can be described thus: K562 cell growth inhibition assay. It is filed as cell-based. Particulars: 72 h, cell counting vs untreated control cells. The procedure:
K562 cell growth inhibition assay
K562 cells, a human myelogenous leukemia cell line, were seeded into a 24 wells tissue culture plate (Falcon 3047) (10000/well) in the presence of increasing concentrations of the compounds. After 72 h, cells were harvested and were counted using a cell counter (Coulter Counter-ZM). The percent of inhibition was evaluated in respect to the untreated control cells.

As usually defined, the IC50 is the point on the concentration scale where inhibition reaches its midpoint. As to `CCOC(=O)C(C)Oc1ccc(C=C2C(=O)Nc3ccccc32)c2cccnc12` (centres unmarked) [2-[5-(2-oxindol-3-ylidenemethyl)quinol-8-yloxy]propionic acid ethyl ester], the values for the IC50 in experiment [1] and in experiment [2] were 15 µM and 39.5 µM, respectively.

These data come from patent US5905149A, “Substituted quinolymethylen-oxindole analogues as tyrosine kinase inhibitors” (Pharmacia & Upjohn S.p.A, priority 1996, dated 1999).
